From the supplement of paper PMC10331698
± gives the standard deviation of the averaged measurements.

Legend:
Test in all cases: level (log10 ratio to DMSO vehicle control); higher = higher biomarker level / cell amount than vehicle control
[1] = compound: CO[Si](C)(CCC(F)(F)C(F)(F)C(F)(F)C(F)(F)C(F)(F)C(F)(F)F)OC [Dimethoxymethyl((perfluorohexyl)ethyl)silane] (in DMSO)
Method: (§1)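 BioMAP Diversity Plus panel of 12 human primary cell co-culture systems (3C, 4H, LPS, SAg, BT, BF4T, BE3C, CASM3C, HDF3CGF, KF3CT, MyoF, Mphg). Compounds were added 1 h before stimulation and left for 24 h (MyoF 48 h; BT 72 h for soluble read-outs or 6 d for IgG). Biomarkers were read by ELISA, cytotoxicity by SRB, PBMC viability and proliferation by Alamar Blue. Each well value was divided by the mean of 8 DMSO control wells on the same plate and log10 transformed; duplicate blinded samples were tested at 4 concentrations.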

[2] = compound: C[C@@H]1C[C@H]2[C@@H]3CCC4=CC(=O)C=C[C@]4(C)[C@@]3(F)[C@@H](O)C[C@]2(C)[C@@]1(O)C(=O)COP(=O)(O)O [Dexamethasone sodium phosphate] (in DMSO)
Method: as §1

[3] = compound: NS(=O)(=O)C(F)(F)C(F)(F)C(F)(F)C(F)(F)C(F)(F)C(F)(F)C(F)(F)C(F)(F)F [Perfluorooctanesulfonamide] (in DMSO)
Method: as §1

[4] = compound: O=C(O)C(F)(OC(F)(F)C(F)(OC(F)(F)C(F)(OC(F)(F)C(F)(F)C(F)(F)F)C(F)(F)F)C(F)(F)F)C(F)(F)F [Perfluoro-(2,5,8-trimethyl-3,6,9-trioxadodecanoic)acid] (in DMSO)
Method: as §1

[5] = compound: O=S(=O)(O)C(F)(F)C(F)(F)C(F)(F)C(F)(F)C(F)(F)C(F)(F)C(F)(F)F [Perfluoroheptanesulfonic acid] (in DMSO)
Method: as §1

[6] = compound: O=S(=O)(O)CCC(F)(F)C(F)(F)C(F)(F)C(F)(F)C(F)(F)C(F)(F)C(F)(F)C(F)(F)F [8:2 Fluorotelomer sulfonic acid] (in DMSO)
Method: as §1

| Test System | level (log10) ([1]; 6700 nM) | level (log10) ([1]; 20000 nM) | level (log10) ([2]; 1500 nM) | level (log10) ([2]; 4400 nM) | level (log10) ([2]; 13000 nM) | level (log10) ([2]; 40000 nM) | level (log10) ([3]; 6700 nM) | level (log10) ([3]; 20000 nM) | level (log10) ([4]; 1100 nM) | level (log10) ([4]; 3300 nM) | level (log10) ([4]; 10000 nM) | level (log10) ([5]; 1500 nM) | level (log10) ([5]; 4400 nM) | level (log10) ([5]; 13000 nM) | level (log10) ([5]; 40000 nM) | level (log10) ([6]; 6700 nM) | level (log10) ([6]; 20000 nM) | level (log10) ([6]; 60000 nM) |
| --- | --- | --- | --- | --- | --- | --- | --- | --- | --- | --- | --- | --- | --- | --- | --- | --- | --- | --- |
| LPS:CCL2/MCP-1 | -0.0155 ± 0.028 | 0.013 ± 0.048 | 0.023 ± 0.011 | -0.0045 ± 0.012 | -0.013 ± 0.0071 | -0.0105 ± 0.088 | -0.0035 ± 0.013 | 0.0165 ± 0.0021 | -0.0105 ± 0.022 | -0.014 ± 0.0042 | -0.002 ± 0.0099 | 0.0045 ± 0.037 | -0.0455 ± 0.026 | -0.005 ± 0.042 | 0.014 ± 0.1 | 0.0135 ± 0.023 | 0.016 ± 0.0028 | -0.055 ± 0.045 |
| LPS:CD40 | -0.0085 ± 0.029 | -0.009 ± 0.025 | 0.0175 ± 0.054 | -0.035 ± 0.03 | -0.012 ± 0.037 | -0.0635 ± 0.019 | -0.0635 ± 0.018 | -0.115 ± 0.0042 | 0.04 ± 0.1 | 0.0475 ± 0.015 | 0.007 ± 0.055 | 0.035 ± 0.075 | 0.029 ± 0.096 | 0.0625 ± 0.1 | 0.001 ± 0.14 | 0.037 ± 0.016 | -0.0195 ± 0.021 | -0.128 ± 0.024 |
| LPS:CD62E/E-Selectin | 0.0135 ± 0.011 | 0.01 ± 0.0099 | 0 ± 0.0014 | -0.015 ± 0.0014 | -0.0105 ± 0.00071 | -0.0115 ± 0.005 | -0.015 ± 0.023 | 0.018 ± 0.016 | -0.002 ± 0.0099 | -0.0115 ± 0.005 | -0.0135 ± 0.0035 | 0.0155 ± 0.015 | -0.0065 ± 0.0035 | -0.0075 ± 0.026 | 0.0095 ± 0.042 | 0.0235 ± 0.06 | 0.033 ± 0.02 | 0.082 ± 0.025 |
| LPS:CD69 | -0.046 ± 0.013 | -0.0265 ± 0.0092 | 0.016 ± 0.1 | -0.009 ± 0.052 | -0.042 ± 0.038 | -0.0335 ± 0.039 | -0.0475 ± 0.0064 | -0.13 | -0.021 ± 0.0014 | -0.0255 ± 0.0078 | -0.007 | -0.01 ± 0.025 | -0.006 ± 0.0057 | -0.004 ± 0.025 | -0.015 ± 0.061 | -0.0455 ± 0.06 | -0.035 ± 0.071 | -0.0835 ± 0.049 |
| LPS:CD106/VCAM-1 | -0.0105 ± 0.04 | 0.0095 ± 0.0035 | 0.0095 ± 0.005 | -0.0285 ± 0.026 | -0.0135 ± 0.0035 | -0.0375 ± 0.023 | 0.0075 ± 0.0035 | 0.0115 ± 0.016 | -0.009 ± 0.0099 | -0.0005 ± 0.0021 | -0.006 ± 0.0057 | 0.015 ± 0.023 | 0.009 ± 0.031 | -0.0235 ± 0.052 | -0.01 ± 0.035 | -0.0135 ± 0.073 | -0.021 ± 0.065 | -0.0535 ± 0.077 |
| LPS:CD141/Thrombomodulin | 0.024 ± 0.034 | 0.006 ± 0.016 | 0.05 ± 0.031 | 0.035 ± 0.028 | 0.0125 ± 0.039 | 0.032 ± 0.027 | 0.037 ± 0.072 | 0.0785 ± 0.066 | -0.019 ± 0.0028 | -0.002 ± 0.0042 | 0.0005 ± 0.0021 | 0.028 ± 0.011 | -0.0075 ± 0.026 | 0.006 ± 0.03 | -0.0065 ± 0.023 | 0.007 ± 0.11 | 0.0505 ± 0.071 | 0.205 ± 0.016 |
| LPS:CD142/Tissue Factor | 0.011 ± 0.048 | 0.017 ± 0.058 | 0.0495 ± 0.026 | 0.03 ± 0.023 | 0.014 ± 0.03 | 0.038 ± 0.028 | -0.024 ± 0.047 | -0.043 ± 0.0071 | 0.0115 ± 0.013 | -0.011 ± 0.021 | 0.022 ± 0.0085 | 0.0145 ± 0.049 | 0.006 ± 0.0042 | 0.0615 ± 0.063 | 0.0555 ± 0.061 | 0.0005 ± 0.067 | 0.024 ± 0.088 | -0.0025 ± 0.011 |
| LPS:CXCL8/IL-8 | 0.0325 ± 0.03 | 0.065 ± 0.0071 | 0.026 ± 0.014 | -0.017 ± 0.02 | -0.0135 ± 0.025 | -0.0475 ± 0.076 | 0.005 ± 0.016 | -0.008 ± 0.0014 | 0.0045 ± 0.016 | -0.0045 ± 0.0064 | 0.0095 ± 0.0021 | 0.015 ± 0.0071 | -0.038 ± 0.0014 | -0.0185 ± 0.033 | 0.031 ± 0.09 | 0.01 ± 0.11 | 0.0485 ± 0.012 | -0.053 ± 0.17 |
| LPS:IL-1alpha | 0.005 ± 0.03 | 0.0235 ± 0.0092 | -0.0215 ± 0.0035 | -0.0475 ± 0.1 | -0.0575 ± 0.035 | -0.0835 ± 0.08 | -0.0195 ± 0.025 | -0.013 ± 0.0071 | 0.0135 ± 0.00071 | -0.0305 ± 0.023 | -0.005 ± 0.059 | 0.0125 ± 0.033 | -0.0015 ± 0.026 | -0.002 ± 0.069 | 0.056 ± 0.095 | -0.0195 ± 0.03 | -0.016 ± 0.037 | -0.283 ± 0.19 |
| LPS:M-CSF | -0.022 ± 0.017 | 0.025 ± 0.041 | -0.0225 ± 0.016 | -0.0445 ± 0.039 | -0.0265 ± 0.0078 | -0.0515 ± 0.012 | -0.0035 ± 0.032 | 0.05 ± 0.04 | -0.005 ± 0.02 | 0.0145 ± 0.035 | 0.022 ± 0.023 | -0.008 ± 0.027 | -0.0185 ± 0.015 | -0.0405 ± 0.013 | -0.02 ± 0.024 | -0.016 ± 0.041 | 0.0075 ± 0.054 | -0.0795 ± 0.088 |
| LPS:SRB | -0.0025 ± 0.0064 | 0.003 ± 0.0085 | 0.008 ± 0.0085 | -0.012 ± 0.0071 | -0.003 ± 0.0099 | 0.006 ± 0.031 | 0.009 ± 0.0057 | -0.0625 ± 0.0078 | -0.008 ± 0.0042 | -0.0125 ± 0.005 | -0.001 ± 0.0085 | -0.0105 ± 0.005 | -0.0165 ± 0.0021 | -0.002 ± 0.0085 | 0.007 ± 0.02 | -0.0085 ± 0.005 | -0.0095 ± 0.019 | -0.02 ± 0.018 |
| LPS:sPGE2 | 0 ± 0.042 | -0.0145 ± 0.035 | -0.028 ± 0.028 | -0.0525 ± 0.015 | -0.121 ± 0.044 | -0.155 ± 0.016 | 0.07 ± 0.011 | 0.0945 ± 0.012 | 0.0385 ± 0.032 | 0.011 ± 0.031 | -0.012 ± 0.047 | 0.018 ± 0.024 | 0.0045 ± 0.016 | 0.0175 ± 0.0064 | 0.005 ± 0.024 | -0.0245 ± 0.0035 | -0.078 ± 0.047 | -0.293 ± 0.017 |
| LPS:sTNF-alpha | -0.0025 ± 0.0078 | -0.0045 ± 0.0078 | -0.083 ± 0.047 | -0.0655 ± 0.032 | -0.19 ± 0.038 | -0.262 ± 0.032 | 0.007 ± 0.0042 | -0.0245 ± 0.00071 | 0.0035 ± 0.022 | -0.001 ± 0.016 | 0.001 ± 0.02 | 0.024 ± 0.011 | -0.0245 ± 0.012 | -0.0225 ± 0.013 | -0.0295 ± 0.005 | 0.0095 ± 0.011 | -0.006 ± 0.0099 | -0.212 ± 0.12 |
| SAg:CCL2/MCP-1 | -0.0215 ± 0.00071 | -0.0145 ± 0.0064 | -0.024 ± 0.031 | -0.029 ± 0.013 | -0.089 ± 0.0042 | -0.07 | -0.0125 ± 0.021 | 0.0075 ± 0.015 | -0.0025 ± 0.018 | -0.0055 ± 0.0035 | 0.0195 ± 0.025 | -0.001 ± 0.031 | -0.0345 ± 0.044 | -0.024 ± 0.028 | 0.031 ± 0.0071 | -0.0035 ± 0.019 | 0 ± 0.0099 | -0.0025 ± 0.0078 |
